Experimental data taken from patent US7906105B1, “Zinc-activated contrast agents” (Northwestern University, priority 2006, dated 2011).
Values joined by “and” are separate entries in the source; they are usually repeats but may differ in a detail not shown here. Equal values may be shown once. “Also recorded” adds a separate entry of the source.

What was measured:
[1] = T1-weighted phantom MR images with Ca(II); conditions: 4.7 T magnet; 1 mM Compound 1 in HEPES, 1 mM CaCl2
Method: (§1) A. Compound 1 selectivity. Images of a 1 mM solution of Compound 1 in HEPES buffer. (A) HEPES buffer only; (B) Compound 1; (C) Compound 1 with 1 mM ZnCl2; (D) Compound 1 with 1 mM MgCl2; (E) Compound 1 with 1 mM CaCl2. B. Compound 1 sensitivity. Images of a 1 mM solution of Compound 1 in HEPES buffer with varying zinc concentrations. (A) 0 μM Zn; (B) 50 μM Zn; (C) 100 μM Zn; (D) 500 μM Zn; (E) 1 mM Zn. (TR=100.0 ms, TE=14.3 ms, FOV=2.5/2.0 cm, data matrix=256×256. TR=repetition time; TE=echo time; FOV=field of view).
(§2) To evaluate the effectiveness of Compound 1 as an in vivo probe, the stability of Zn-Compound 1 was investigated. Using the commercially available fluorophore FluoZinTM-1 (Invitrogen), the binding constant of zinc can be determined by a competitive assay. Since the Zn(II)-binding regions of the dye and Compound 1 are identical, similar binding constants are to be expected. […] To confirm there was a measurable difference between zinc concentrations, T1 was measured on these same samples on a 14.1 T magnet and on a 1.4 T magnet.

[2] = Stability in 0.1 M phosphate buffer (relaxivity, ICP of supernatant); assay type: physicochemical
Method: Compound 1 was monitored for 24 hours in a 0.1 M phosphate buffer to determine its stability in solution. Due to the low solubility of GdPO4 (Ksp=10^−22.26 mol^2/L^2) any dissociation of gadolinium from Compound 1 will precipitate, causing a subsequent decrease in relaxivity which was not seen. A more accurate measurement of the amount of gadolinium dissociation can be made from centrifuging the samples and collecting aliquots of the supernatant for evaluation of gadolinium concentration via ICP.

[3] = Relaxivity measurements with MgCl2; assay type: physicochemical; conditions: MgCl2, even at 3-fold excess of the dication
Method: (§3) Left: Relaxivity of Compound 1 in the presence of XCl2, where X=Zn, Ca, and Mg. All solutions were made in 100 mM KCl/100 mM HEPES at ph=7.4. Right: Relaxivity of Zn-1, 3:1 (Zn:Gd), following titration of EDTA.
(§4) To test the binding ability of the acetate ligands to Zn(II), relaxivity measurements of 1 were measured in the absence and presence of ZnCl2. The relaxitivity of 1 in HEPES buffer without zinc was 2.34 mM^−1 s^−1, as is typical for small molecule contrast agents for which q=0 (8). […] As ZnCl2 was added, the relaxivity increased to 5.3 mM^−1 s^−1 indicative of a q=1 complex (See FIG. 3, left). Similar studies were conducted using MgCl2 and CaCl2 to test for selectivity of the ligand for zinc over other dications known to have higher cellular concentrations and which have similar binding affinities for carboxylic acids. […] A competitive binding assay gave a dissociation constant of 2.38×10^−4 M for the Gd(III)-Zn(II) complex.

[4] = Competitive binding assay with fluorophore FluoZin-1; conditions: competitive assay against FluoZin-1; read-out: dissociation constant (Kd) of the Gd(III)-Zn(II) complex
Method: as §4, §2

NIH/3T3 cells [5] = experiment: Cell cytotoxicity, trypan blue staining; assay type: cell-based; set-up: cell viability: dose or concentration left out as unconfirmed
Method: (§5) The cell doubling time for NIH/3T3 cells is around 16 hours and one can see over twice as many cells at 24 hours than at 8 hours as one would expect, implying greater than 99% cell viability. B. Compound 1 is taken up at a constant rate for up to 8 hours.
(§6) Compound 1 was effectively taken up by NIH/3T3 cells at a constant rate for the first 8 hours of treatment. The maximal intracellular concentration of Compound 1 of approximately 10^−14 mol Gd/cell is achieved at 8 hours and maintained up to 24 hours (FIG. 6 B). NIH/3T3 cells were seeded at 10^5 cells per well in 24-well tissue culture plates with Dulbecco's modified Eagle's medium (DMEM) containing 10% bovine calf serum and incubated overnight in a 5% CO2 incubator at 37° C. The media was then changed and Compound 1 added at a concentration of 500 μM. After 2, 4, 8, and 24 hours, cells were washed three times with 1×PBS and exposed to 250 μL of 0.25% trypsin and harvested. Cells were diluted with an equal volume of 0.4% trypan blue and counted on a hemacytometer. For cellular uptake of Compound 1 into cells, cells were incubated with concentrated nitric acid at 70° C. for 3 hours. The dissolved cells were diluted into a 5 ml, solution with 3% nitric acid and 5 ppb of an indium internal standard. The concentration of Gd(III) was then determined using ICP-MS (induction coupled plasma mass spectrometry).

[6] = T1-weighted phantom MR images with Zn(II)
Method: as §1, §2

[7] = Relaxivity measurements in the absence and presence of ZnCl2; assay type: physicochemical
Method: as §3, §4
After 1 was left to equilibrate at 37° C. for 3 days with an excess of zinc, a relaxivity of 9.2 mM^−1 s^−1 was measured, indicating the species has a value of q=2. This measurement corresponds well to a structure proposed by embodiments of the present invention in which the pendant ligands have left the gadolinium for the zinc, leaving two open coordination sites for water to bind. […] Although an understanding of the mechanism is not necessary to practice the present invention and the present invention is not limited to any particular mechanism of action, in some embodiments, this is due to sequestration of Zn(II) by EDTA which leaves the carboxylic acids available to bind to Gd(III) and close the coordination sites (See FIG. 3, right). Adding excess EDTA had no effect on the relaxivity, providing that the Gd(III) ions are not sequestered by EDTA as expected given the high binding constant (˜10^16) for Gd-EDTA for which q=1.
Proton relaxivity measurements on Compound 1 were also performed while titrating with increasing amounts of Zn(II) up to 1:1.4 (Gd: Zn) equivalents. […] The observed linear dependence also rules out the possibility of a 2:1 (Gd:Zn) complex formation.

[8] = T1-weighted phantom MR images with Mg(II); conditions: 4.7 T magnet; 1 mM Compound 1 in HEPES, 1 mM MgCl2
Method: as §1, §2

[9] = Relaxivity measurements with CaCl2; assay type: physicochemical; conditions: CaCl2, even at 3-fold excess of the dication
Method: as §3, §4

NIH/3T3 cells [10] = experiment: Cellular uptake, Gd(III) by ICP-MS; assay type: cell-based; conditions: 500 μM
Method: as §5, §6

[11] = Testing of further agents for Zn(II) detection/activation (method not described)
From the text: [drawing 1] wherein R═(CH2)n(n=1 or 2).

Structure (SMILES): Cc1cccc(OCCCN2CCN(CC(=O)[O-])CCN(CC(=O)[O-])CCN(CC(=O)[O-])CC2)c1N(CC(=O)[O-])CC(=O)[O-].[Gd+3] [Compound 1]
- MR image difference with Ca(II) [1]: no discernible difference
- decrease in relaxivity (Gd dissociation/precipitation) ([2]; 0.1 M phosphate buffer, 24 hours): not seen
- change in [Gd] of supernatant (ICP) ([2]; 0.1 M phosphate buffer, time-points up to 24 hours): no significant change
- dissociation constant of the gadolinium complex ([2]; suggested from phosphate buffer stability): on the order of that seen for Gd-DO3A
- change in relaxivity values [3]: no significant change
- Kd [4]: 238 µM and 240 µM
- cell death (NIH/3T3 cells [5]; 0.5 mM, up to 24 hours, trypan blue staining): no observable cell death
- cell viability (NIH/3T3 cells [5]; 24 hours): greater than 99%
- cell proliferation (NIH/3T3 cells [5]; incubation with Compound 1 up to 24 hours): Normal proliferation; also recorded: proliferated exponentially at the expected rate
- MR image intensity in the presence of Zn(II) ([6]; 4.7 T magnet, 1 mM Compound 1 in HEPES, 1 mM ZnCl2): increase in intensity
- levels of Zn(II) that can be detected ([6]; in vitro MR images): hundreds of micromolar
- visualization of difference between 100 μM and 500 μM zinc ([6]; phantom images, 1 mM Compound 1, varying zinc concentrations): easily visualize the difference
- relaxivity ([7]; HEPES buffer without zinc): 2.34 mM⁻¹ s⁻¹
- relaxivity ([7]; HEPES buffer, ZnCl2 added): 5.3 mM⁻¹ s⁻¹
- relaxivity ([7]; equilibrated at 37° C. for 3 days with an excess of zinc): 9.2 mM⁻¹ s⁻¹
- increase in relaxivity ([7]; in the presence of Zn(II)): > 100%
- MR image difference with Mg(II) [8]: no discernible difference
- change in relaxivity values [9]: no significant change
- uptake rate (NIH/3T3 cells [10]; first 8 hours of treatment): constant rate
- maximal intracellular concentration (NIH/3T3 cells [10]; achieved at 8 hours and maintained up to 24 hours): approximately 10^−14 mol Gd/cell

Structure (SMILES): Cc1cccc(OCCN2CCN(CC(=O)[O-])CCN(CC(=O)[O-])CCN(CC(=O)[O-])CC2)c1N(CC(=O)[O-])CC(=O)[O-].[Gd+3] [second agent]
- activation towards Zn(II) [11]: little activation
